Experimental findings from patent US11555006B2, “Elucidation of novel 13-series resolvins that increase with atorvastatin and clear infections” (The Brigham and Women's Hospital, Inc., priority 2015, dated 2023) are described below.

In test [1] the test system is human macrophages. Put plainly: Human macrophage phagocytosis, ROS and efferocytosis. Conditions: for In vitro: human macrophage efferocytosis of apoptotic neutrophils: summary table of bioactions; for In vitro: human macrophage and neutrophil intra-phagolysosomal ROS production / In vitro: human macrophage and neutrophil phagocytosis of E. coli: summary table, macrophages and neutrophils. The class given is cell-based. The method, then:
Macrophages were prepared from peripheral blood mononuclear cells (PBMC) purchased from Children's Hospital Blood Bank, Boston, and phagocytosis was assessed as in^31. Briefly, macrophages (5×10^4 cells/well) were incubated with RvT1 (1 pM-10 nM), 1:1 mixture RvT2 and RvT3 (1 pM-10 nM), RvT4 (1 pM-10 nM) or vehicle (0.1% EtOH in DPBS) for 15 min at 37° C., then fluorescent labeled apoptotic cells were added and cells incubated 45 min at 37° C. Extracellular fluorescence was quenched using Trypan blue (1:15 dilution) and phagocytosis assessed using an M3 SpectraMax plate reader (Molecular Devices). In select experiments, macrophages (prepared as detailed above, 5×10^4 cells/well) or neutrophils (1×10^5 cells/well), obtained from human healthy volunteers and isolated as in ^31 in accordance with Partners Human Research Committee Protocol (number 1999P001297), were incubated with H2DCFDA (5 μM, 30 min, 37° C.), excess dye was washed off and cells incubated with RvT1 (1 pM-10 nM), 1:1 mixture RvT2 and RvT3 (1 pM-10 nM), RvT4 (1 pM-10 nM) or vehicle (0.1% EtOH in DPBS, 15 min, 37° C.), then incubated with E. coli (1:50 leukocytes to E. coli, 45 min, 37° C.). Intracellular reactive oxygen species were determined by measuring fluorescence using an M3 SpectraMax plate reader. To assess bacterial phagocytosis, macrophages (5×10^4 cells/well) or neutrophils (1×10^5 cells/well) were incubated with RvT1 (1 pM-10 nM), 1:1 mixture RvT2 and RvT3 (1 pM-10 nM), RvT4 (1 pM-10 nM) or vehicle (0.1% EtOH in DPBS, 15 min, 37° C.), then incubated with BacLight Green (Molecular Probes) labeled E. coli (1:50 leukocytes to E. coli, 45 min, 37° C.). Extracellular fluorescence was then quenched using Trypan blue (1:15 dilution), and phagocytosis was assessed using an M3 SpectraMax plate reader.

The test system of test [2] is human macrophages. Put plainly: Human macrophage caspase 1, IL-1β and lactate dehydrogenase. Conditions: summary table of bioactions. The class given is cell-based. As for the experimental part: Human macrophages (1.5×10^4 cells/well) were incubated with RvT1 (10 pM-10 nM), 1:1 mixture RvT2 and RvT3 (10 pM-10 nM), RvT4 (10 pM-10 nM) or vehicle (0.1% EtOH in DPBS, 15 min, 37° C.), then E. coli (7.5×10^5 cells/well, in DPBS, 16 h, 37° C.). Caspase 1 levels were assessed in macrophages by flow cytometry after cell fixing and permeabilization, staining with an anti-caspase 1 (Abcam; 4° C., 30 min) and anti-rabbit-Alexa 488 conjugated antibody (Molecular Probes; 4° C., 30 min). IL-1β levels were determined in cell-free supernatants using an anti-human IL-1β ELISA (eBiosciences) following manufacturer's instructions. Lactate dehydrogenase activity was measured in cell-free supernatants assessing the formation of NADH from NAD+ using a Lactate Dehydrogenase Assay kit (Sigma) following manufacturer's instructions.

Test [3] concerns E. coli infections in mice. Put plainly: E. coli peritonitis in mice. The format is in vivo. Conditions: for In vivo: circulating platelet-leukocyte aggregates / In vivo: exudate pro-inflammatory eicosanoid levels during infections / In vivo: infection induced hypothermia / In vivo: macrophage efferocytosis of apoptotic neutrophils / In vivo: murine leukocyte phagocytosis of E. coli / In vivo: neutrophil recruitment during infections / In vivo: protective actions of atorvastatin in infections / In vivo: pyroptosis: summary table of bioactions. As for the experimental part: All animal experiments were conducted in accordance with the Harvard Medical Area Standing Committee on Animals (protocol no. 02570). Mice (male FvB, 6-8 weeks old, Charles River, fed lab diet containing essential fatty acids as from supplier) were anesthetized with isoflurane and microbial peritonitis initiated. Briefly, test compounds or vehicle were injected i.p. or i.v. 5 min prior to live E. coli (serotype 06:K2:H1; 1×10^5 or 1×10^7 CFU/mouse). At designated time intervals mice were harvested, blood was collected via cardiac puncture in heparin, and peritoneal exudates were collected in 4 ml of PBS. The cellular composition in the exudates was determined using Turks solution and light microscopy, and by flow cytometry. For flow cytometry, exudate cells were incubated with anti-mouse CD16/CD32 (eBiosciences, 20 min, 4° C., in PBS containing 5% fetal calf serum-staining solution), followed by incubation with FITC-conjugated anti-mouse Ly6G antibody (clone: 1A8, eBiosciences), PE-conjugated anti-mouse F4/80 antibody (clone:BM8, eBiosciences) and PerCP-Cy5.5-conjugated anti-mouse CD11b antibody (clone:M1/70, eBiosciences) for 30 min (4° C., in staining solution). To assess bacterial phagocytosis in peritoneal exudate leukocytes, exudate cells were incubated with PerCP-Cy5.5-conjugated anti-mouse CD11b antibody (30 min, 4° C., in staining solution), then fixed and permeabilized using BD Perm/Wash™ Buffer (BD Biosciences) following manufacturer's instructions and incubated with FITC-conjugated anti-E. coli antibody (GenTex, 30 min, 4° C., in BD Perm/Wash™ Buffer). Efferocytosis in infectious exudates was assessed by incubating exudate leukocytes with PE-conjugated anti-mouse F4/80 antibody (30 min, 4° C., in staining solution), then fixed and permeabilized using BD Perm/Wash™ Buffer (BD Biosciences) and incubated with FITC-conjugated anti-mouse Ly6G antibody (30 min, 4° C., in BD Perm/Wash™ Buffer). Body temperatures were assessed using an Infrared thermometer (Fluke). Bacterial counts in peripheral blood and inflammatory exudates were determined by overnight cultures (37° C.) of serially diluted samples on LB agar plates. Caspase 1 levels were assessed by incubation of exudate cells with PerCP-Cy5.5-conjugated anti-mouse CD11b antibody (30 min, 4° C., in staining solution), then fixed and permeabilized using BD Perm/Wash™ Buffer (BD Biosciences), incubated with anti-caspase 1 antibody (Abcam, 30 min, 4° C., in BD Perm/Wash™ Buffer) followed by anti-rabbit Alexa 488 conjugated antibody (Life Technologies, 30 min, 4° C., in BD Perm/Wash™ Buffer). IL-1β levels were determined in cell-free supernatants using an anti-mouse IL-1β ELISA (Abcam) following manufacturer's instructions. Lactate dehydrogenase activity was measured in cell-free supernatants assessing the formation of NADH from NAD+ using a Lactate Dehydrogenase Assay kit (Sigma) following manufacturer's instructions.
In select experiments resolution indices were calculated as in ^27. Ψmax, maximal PMN numbers in exudates; Tmax, time point when PMN numbers reach maximum; R50, 50% of maximal PMN numbers; T50, time point when PMN numbers reduce to 50% of maximum; Ri (resolution interval), T50-Tmax, time period when 50% PMN are lost from the exudates. To assess the proresolving actions of the test products, these were administered 12 h after E. coli (10^5 CFU) inoculation, and resolution indices were assessed.
For some experiments, mice were administered via i.p. injection RvT1, RvT2, RvT3 and RvT4 (that were isolated as detailed below and combined as a mixture at a ratio of 2:1:1:8 respectively) 2 h after E. coli inoculation. Blood and lungs were harvested 6 h after E. Coli inoculation. Blood was employed to determine peripheral blood eicosanoid levels as detailed below.

A further test concerns nitric oxide synthase. Put plainly: L-NAME and atorvastatin in E. coli inoculated mice, plasma RvT. The class given is in vivo. The method, then:
In a separate set of experiments, mice were inoculated with E. coli; after 60 min they were given L-NAME (24 mg/kg) and 5 min later atorvastatin (5 μg) via i.v. injection. Plasma was obtained after 5 h via cardiac puncture and LM levels were investigated by lipid mediator metabololipidomics. For all animal experiments mice were randomized to vehicle or treatment groups without blinding.

In test [4] the test system is human neutrophil-endothelial cell co-incubations. Put plainly: Lipid mediator levels in human endothelial cell incubations and neutrophil-endothelial cell co-incubations. The format is cell-based. Conditions: atorvastatin 0.03-30 μM.
Method: Prior to sample extraction, deuterated internal standards (d4-PGE2, d5-LXA4, d4-RvD2, d4-LTB4 and d8-5S-HETE) representing regions of interest in the chromatographic analysis (500 pg each) were added to facilitate quantification. Extracted samples were analyzed by a LC-MS-MS system, Qtrap 6500 (AB Sciex) equipped with a Shimadzu SIL-20AC autoinjector and LC-20AD binary pump (Shimadzu Corp.). An Agilent Eclipse Plus C18 column (100×4.6 mm×1.8 μm) was used with a gradient of methanol/water/acetic acid of 55:45:0.01 (vol:vol:vol) that was ramped to 85:15:0.01 (vol:vol:vol) over 10 min and then to 98:2:0.01 (vol:vol:vol) for the next 8 min. This was subsequently maintained at 98:2:0.01 (vol:vol:vol) for 2 min. The flow rate was maintained at 0.4 ml/min. To monitor and quantify the levels of lipid mediators, a multiple reaction monitoring (MRM) method was developed with signature ion fragments (m/z) for each molecule monitoring the parent ion (Q1) and a characteristic daughter ion (Q3). […] Calibration curves were determined using a mixture of lipid mediators obtained via total organic synthesis, where these lipid mediators were not available (RvT1, RvT2, RvT3, RvT4 and 13-HDPA); known mediators with similar chromatographic properties (RvD2 for RvT1, RvD1 for RvT2 and RvT3; RvD5 for RvT4; 13-HDHA for 13-HDPA) were used. […]

Consider “7,8,13-trihydroxy-docosapentaenoic [RvT2]”, for which, in the test on human macrophages [1], the “In vitro: human macrophage efferocytosis of apoptotic neutrophils” value (shortened to “In vitro: human macrophage efferocytosis”) is recorded as “Stimulates human”; the “In vitro: human macrophage and neutrophil intra-phagolysosomal ROS production” value is listed as “Stimulates human”; the “In vitro: human macrophage and neutrophil phagocytosis of E. coli” value (“In vitro … of E. coli” below) was “Stimulates human”. Further, in the test on human macrophages [2], the “In vitro: E. coli induced inflammasome components in human macrophages” value (“In vitro … in human macrophages” for short) is listed as “Reduces E. coli induced” and the “In vitro: E. coli induced macrophage pyroptosis” value was “Reduces E. coli induced”. Further, in test [3], the “In vivo: circulating platelet-leukocyte aggregates” value is listed as “Reduces circulating platelet -”, the “In vivo: exudate pro-inflammatory eicosanoid levels during infections” value is “Reduces exudate pro-”, the “In vivo: infection induced hypothermia” value is “Protects against infection” and the “In vivo: macrophage efferocytosis of apoptotic neutrophils” value (from here on “In vivo: macrophage efferocytosis”) is recorded as “Stimulates macrophage”. In test [3], the “In vivo: murine leukocyte phagocytosis of E. coli” value (“In vivo … of E. coli” below) is “Stimulates murine leukocyte”, the “In vivo: neutrophil recruitment during infections” value is given as “Limits neutrophil recruitment”, the “In vivo: protective actions of atorvastatin in infections” value (from here on “In vivo: protective actions”) is listed as “Elaborates the protective” and the “In vivo: pyroptosis” value is “Reduces pyroptosis”.

With `COC(=O)[C@@H](N)CCCNC(=N)N[N+](=O)[O-]` [L-NAME, L-NG-Nitroarginine Methyl Ester], the “atorvastatin-mediated increases in plasma RvT” value in the test on nitric oxide synthase (L-NAME 24 mg/kg prior to atorvastatin 5 μg/mouse i.v., E. coli 1×10^5 CFU/mouse) is listed as “significantly reversed”. Moreover, the “neutrophil recruitment to the peritoneum” value in the test with nitric oxide synthase (L-NAME prior to atorvastatin during mouse infections) is on record as “increased”.

Regarding `CCC=CCC=CC=CC(O)C(O)C=CC=CC(O)CCCCCC(=O)O` (centres unmarked) [RvT3, 7,12,13-trihydroxy-docosapentaenoic acid], in the test with human macrophages [1], the “In vitro: human macrophage efferocytosis” value is “Stimulates human”; the “In vitro: human macrophage and neutrophil intra-phagolysosomal ROS production” value is reported as “Stimulates human”; the “In vitro … of E. coli” value is reported as “Stimulates human”. Moreover, in the test on human macrophages [2], the “In vitro … in human macrophages” value is “Reduces E. coli induced” and the “In vitro: E. coli induced macrophage pyroptosis” value was “Reduces E. coli induced”. In addition, in test [3], the “In vivo: circulating platelet-leukocyte aggregates” value is reported as “Reduces circulating platelet-”, the “In vivo: exudate pro-inflammatory eicosanoid levels during infections” value is given as “Reduces exudate pro-”, the “In vivo: infection induced hypothermia” value is listed as “Protects against infection” and the “In vivo: macrophage efferocytosis” value was “Stimulates macrophage”. Also, in test [3], the “In vivo … of E. coli” value is listed as “Stimulates murine leukocyte”, the “In vivo: neutrophil recruitment during infections” value is recorded as “Limits neutrophil”, the “In vivo: protective actions” value is “Elaborates the protective” and the “In vivo: pyroptosis” value is “Reduces pyroptosis”.

With `CC/C=C\C/C=C\C=C\C(O)C/C=C\C=C\C(O)CCCCCC(=O)O` (centres unmarked) [RvT4, 7,13-dihydroxy-docosapentaenoic acid], in the test with human macrophages [1], the “In vitro: human macrophage efferocytosis” value is “Stimulates human”; the “In vitro: human macrophage and neutrophil intra-phagolysosomal ROS production” value was “Stimulates human”; the “In vitro … of E. coli” value was “Stimulates human”. For the same compound, in the test with human macrophages [2], the “In vitro … in human macrophages” value is given as “Reduces E. coli induced” and the “In vitro: E. coli induced macrophage pyroptosis” value is given as “Reduces E. coli induced”. Also, in test [3], the “In vivo: circulating platelet-leukocyte aggregates” value was “Reduces circulating platelet-”, the “In vivo: exudate pro-inflammatory eicosanoid levels during infections” value is reported as “Reduces exudate pro-”, the “In vivo: infection induced hypothermia” value is given as “Protects against infection” and the “In vivo: macrophage efferocytosis” value is on record as “Stimulates macrophage”. In test [3], the “In vivo … of E. coli” value is reported as “Stimulates murine leukocyte”, the “In vivo: neutrophil recruitment during infections” value is recorded as “Limits neutrophil recruitment”, the “In vivo: protective actions” value is “Elaborates the protective” and the “In vivo: pyroptosis” value was “Reduces pyroptosis”.

In the case of `CC(C)c1c(C(=O)Nc2ccccc2)c(-c2ccccc2)c(-c2ccc(F)cc2)n1CC[C@@H](O)C[C@@H](O)CC(=O)O` [atorvastatin], in test [4], the “RvT in neutrophil-endothelial cell co-cultures” value is listed as “dose-dependent increases”. Besides, in test [3] (treatment 2 h after E. coli, blood 6 h after E. coli), the “PGI2 and 15-deoxy-Δ-12,14-PGJ2” value is given as “increases”. The “endothelin-1 and plasminogen activator inhibitor-1” value in test [3] (treatment 2 h after E. coli, lung mRNA 6 h after E. coli) is “reduced”.
